Where two headings read alike, the source gives them in different places.
Assays:
[1] = molecular target: EGFR del19/C797S (Homo sapiens, UniProt P00533, C797S/DEL746-750); experiment: Biochemical EGFR kinase assay (Lance Ultra TR-FRET), double mutant del19/C797S
Method in brief: (§1)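 In this biochemical assay, phosphorylation after a one-hour room-temperature reaction was detected with europium-labelled anti-phosphopeptide antibody at 2 nM final concentration.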

[2] = molecular target: EGFR L858R/T790M/C797S (Homo sapiens, UniProt P00533, C797S/L858R/T790M); experiment: Biochemical EGFR kinase assay (Lance Ultra TR-FRET), triple mutant L858R/T790M/C797S
Sequence of EGFR L858R/T790M/C797S (P00533 25-1210 T790M/C797S/L858R): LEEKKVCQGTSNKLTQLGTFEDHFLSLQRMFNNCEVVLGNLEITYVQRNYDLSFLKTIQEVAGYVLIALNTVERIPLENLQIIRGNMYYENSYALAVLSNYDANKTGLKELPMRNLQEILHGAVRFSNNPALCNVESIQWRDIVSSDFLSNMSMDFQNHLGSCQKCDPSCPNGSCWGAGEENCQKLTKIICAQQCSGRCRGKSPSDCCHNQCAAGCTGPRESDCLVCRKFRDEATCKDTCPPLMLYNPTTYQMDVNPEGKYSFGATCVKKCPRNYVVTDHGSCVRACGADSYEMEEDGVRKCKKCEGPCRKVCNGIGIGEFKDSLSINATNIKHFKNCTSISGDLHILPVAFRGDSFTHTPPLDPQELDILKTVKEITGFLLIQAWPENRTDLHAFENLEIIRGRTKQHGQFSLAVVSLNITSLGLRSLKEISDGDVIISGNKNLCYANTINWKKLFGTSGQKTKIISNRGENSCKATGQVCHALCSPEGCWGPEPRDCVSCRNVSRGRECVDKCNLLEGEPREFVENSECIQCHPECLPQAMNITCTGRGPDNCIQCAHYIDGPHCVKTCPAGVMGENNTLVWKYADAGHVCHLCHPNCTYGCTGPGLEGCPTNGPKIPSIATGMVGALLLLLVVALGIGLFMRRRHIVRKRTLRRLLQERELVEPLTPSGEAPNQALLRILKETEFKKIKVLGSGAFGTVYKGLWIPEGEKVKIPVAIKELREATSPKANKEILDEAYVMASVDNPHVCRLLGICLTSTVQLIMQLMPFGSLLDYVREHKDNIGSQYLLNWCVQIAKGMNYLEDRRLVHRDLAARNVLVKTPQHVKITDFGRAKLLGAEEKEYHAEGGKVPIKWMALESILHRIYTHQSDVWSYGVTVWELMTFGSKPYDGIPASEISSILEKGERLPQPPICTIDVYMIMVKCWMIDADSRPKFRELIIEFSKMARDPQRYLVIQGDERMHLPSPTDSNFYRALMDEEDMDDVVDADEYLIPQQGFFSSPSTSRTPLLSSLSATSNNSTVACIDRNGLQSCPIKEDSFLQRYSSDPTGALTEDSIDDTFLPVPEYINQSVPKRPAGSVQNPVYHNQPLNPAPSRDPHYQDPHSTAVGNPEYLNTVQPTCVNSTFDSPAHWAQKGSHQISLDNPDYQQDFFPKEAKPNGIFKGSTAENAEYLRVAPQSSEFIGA
Method in brief: as §1

[3] = molecular target: EGFR L858R/C797S (Homo sapiens, UniProt P00533, C797S/L858R); experiment: Biochemical EGFR kinase assay (Lance Ultra TR-FRET), double mutant L858R/C797S
Sequence of EGFR L858R/C797S (P00533 25-1210 C797S/L858R): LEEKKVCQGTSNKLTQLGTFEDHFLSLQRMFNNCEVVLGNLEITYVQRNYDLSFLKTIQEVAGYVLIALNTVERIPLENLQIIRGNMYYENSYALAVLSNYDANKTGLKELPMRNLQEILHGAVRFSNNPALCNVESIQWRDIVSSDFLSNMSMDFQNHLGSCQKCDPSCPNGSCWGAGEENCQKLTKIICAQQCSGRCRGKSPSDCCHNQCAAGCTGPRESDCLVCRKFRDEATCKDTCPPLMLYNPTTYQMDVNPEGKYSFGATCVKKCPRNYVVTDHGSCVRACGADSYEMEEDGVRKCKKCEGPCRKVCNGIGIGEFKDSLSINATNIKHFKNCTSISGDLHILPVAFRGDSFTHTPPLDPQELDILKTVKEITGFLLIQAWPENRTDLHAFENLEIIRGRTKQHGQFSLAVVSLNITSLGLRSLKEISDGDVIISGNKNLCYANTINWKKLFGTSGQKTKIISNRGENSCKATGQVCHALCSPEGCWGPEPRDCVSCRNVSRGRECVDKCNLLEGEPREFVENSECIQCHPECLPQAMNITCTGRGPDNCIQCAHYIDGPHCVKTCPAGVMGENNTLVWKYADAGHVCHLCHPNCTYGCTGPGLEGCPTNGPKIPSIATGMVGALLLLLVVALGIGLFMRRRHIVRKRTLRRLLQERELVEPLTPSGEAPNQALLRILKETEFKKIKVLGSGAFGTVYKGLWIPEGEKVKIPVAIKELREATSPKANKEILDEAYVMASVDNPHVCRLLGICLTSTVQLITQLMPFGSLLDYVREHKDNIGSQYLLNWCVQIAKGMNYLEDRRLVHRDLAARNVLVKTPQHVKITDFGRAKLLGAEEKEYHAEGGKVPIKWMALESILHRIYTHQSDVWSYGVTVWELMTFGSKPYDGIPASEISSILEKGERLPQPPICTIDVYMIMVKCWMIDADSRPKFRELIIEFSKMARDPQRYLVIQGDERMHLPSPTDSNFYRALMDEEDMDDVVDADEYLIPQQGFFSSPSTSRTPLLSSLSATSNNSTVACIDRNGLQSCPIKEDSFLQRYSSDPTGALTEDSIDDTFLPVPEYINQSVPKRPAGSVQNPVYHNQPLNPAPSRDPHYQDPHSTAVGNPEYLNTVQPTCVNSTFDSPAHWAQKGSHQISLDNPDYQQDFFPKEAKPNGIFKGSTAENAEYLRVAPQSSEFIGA
Method in brief: as §1

[4] = molecular target: EGFR wildtype (Homo sapiens, UniProt P00533); experiment: Biochemical EGFR kinase assay (Lance Ultra TR-FRET), wildtype
Method in brief: as §1

[5] = molecular target: EGFR del19/T790M/C797S (Homo sapiens, UniProt P00533, C797S/DEL746-750/T790M); experiment: Biochemical EGFR kinase assay (Lance Ultra TR-FRET), triple mutant del19/T790M/C797S
Sequence of EGFR del19/T790M/C797S (P00533 with tags, fused parts or gaps DEL746-750/T790M/C797S): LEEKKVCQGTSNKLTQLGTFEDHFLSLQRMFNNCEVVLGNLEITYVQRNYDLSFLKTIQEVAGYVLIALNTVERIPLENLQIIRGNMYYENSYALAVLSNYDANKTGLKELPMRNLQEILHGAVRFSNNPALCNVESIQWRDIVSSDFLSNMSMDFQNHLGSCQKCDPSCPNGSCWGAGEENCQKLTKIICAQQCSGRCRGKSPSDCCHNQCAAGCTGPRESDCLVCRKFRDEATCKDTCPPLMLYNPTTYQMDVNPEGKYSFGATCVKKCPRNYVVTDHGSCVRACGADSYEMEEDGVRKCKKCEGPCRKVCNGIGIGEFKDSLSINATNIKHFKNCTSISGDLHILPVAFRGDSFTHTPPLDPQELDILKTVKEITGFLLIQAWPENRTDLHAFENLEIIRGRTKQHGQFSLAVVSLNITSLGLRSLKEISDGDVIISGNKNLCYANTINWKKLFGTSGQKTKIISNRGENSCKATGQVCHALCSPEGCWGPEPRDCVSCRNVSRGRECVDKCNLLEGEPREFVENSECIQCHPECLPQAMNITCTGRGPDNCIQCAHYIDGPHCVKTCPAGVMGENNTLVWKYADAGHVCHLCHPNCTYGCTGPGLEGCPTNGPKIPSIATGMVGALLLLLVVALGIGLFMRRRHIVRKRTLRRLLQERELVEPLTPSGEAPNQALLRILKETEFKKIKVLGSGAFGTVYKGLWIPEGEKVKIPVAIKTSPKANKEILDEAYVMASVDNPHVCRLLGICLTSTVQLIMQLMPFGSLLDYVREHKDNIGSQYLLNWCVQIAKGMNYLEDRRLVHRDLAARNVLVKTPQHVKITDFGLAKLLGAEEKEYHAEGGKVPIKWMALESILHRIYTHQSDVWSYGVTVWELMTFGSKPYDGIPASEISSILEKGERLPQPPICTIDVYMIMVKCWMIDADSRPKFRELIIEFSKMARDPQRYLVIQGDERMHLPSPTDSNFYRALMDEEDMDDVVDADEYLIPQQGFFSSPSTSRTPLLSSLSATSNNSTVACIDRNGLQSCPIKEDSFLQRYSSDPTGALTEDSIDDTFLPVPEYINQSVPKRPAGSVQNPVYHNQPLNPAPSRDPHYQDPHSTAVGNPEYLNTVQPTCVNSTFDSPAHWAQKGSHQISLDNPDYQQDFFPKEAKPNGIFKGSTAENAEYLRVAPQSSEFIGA
Method in brief: as §1

[6] = ATP at Km, read-out: IC50 del19/C797S, Km ATP
[7] = ATP at Km, read-out: IC50 L858R/T790M/C797S, Km ATP
[8] = ATP at Km, read-out: IC50 L858R/C797S, Km ATP
[9] = ATP at Km, read-out: IC50 WT, Km ATP
[10] = ATP at Km, read-out: IC50 del19/T790M/C797S, Km ATP
[11] = IC50 L858R/T790M/C797S, 100 μM ATP
[12] = IC50 del19/T790M/C797S, 100 μM ATP

Sequence of EGFR del19/C797S (P00533 with tags, fused parts or gaps DEL746-750/C797S): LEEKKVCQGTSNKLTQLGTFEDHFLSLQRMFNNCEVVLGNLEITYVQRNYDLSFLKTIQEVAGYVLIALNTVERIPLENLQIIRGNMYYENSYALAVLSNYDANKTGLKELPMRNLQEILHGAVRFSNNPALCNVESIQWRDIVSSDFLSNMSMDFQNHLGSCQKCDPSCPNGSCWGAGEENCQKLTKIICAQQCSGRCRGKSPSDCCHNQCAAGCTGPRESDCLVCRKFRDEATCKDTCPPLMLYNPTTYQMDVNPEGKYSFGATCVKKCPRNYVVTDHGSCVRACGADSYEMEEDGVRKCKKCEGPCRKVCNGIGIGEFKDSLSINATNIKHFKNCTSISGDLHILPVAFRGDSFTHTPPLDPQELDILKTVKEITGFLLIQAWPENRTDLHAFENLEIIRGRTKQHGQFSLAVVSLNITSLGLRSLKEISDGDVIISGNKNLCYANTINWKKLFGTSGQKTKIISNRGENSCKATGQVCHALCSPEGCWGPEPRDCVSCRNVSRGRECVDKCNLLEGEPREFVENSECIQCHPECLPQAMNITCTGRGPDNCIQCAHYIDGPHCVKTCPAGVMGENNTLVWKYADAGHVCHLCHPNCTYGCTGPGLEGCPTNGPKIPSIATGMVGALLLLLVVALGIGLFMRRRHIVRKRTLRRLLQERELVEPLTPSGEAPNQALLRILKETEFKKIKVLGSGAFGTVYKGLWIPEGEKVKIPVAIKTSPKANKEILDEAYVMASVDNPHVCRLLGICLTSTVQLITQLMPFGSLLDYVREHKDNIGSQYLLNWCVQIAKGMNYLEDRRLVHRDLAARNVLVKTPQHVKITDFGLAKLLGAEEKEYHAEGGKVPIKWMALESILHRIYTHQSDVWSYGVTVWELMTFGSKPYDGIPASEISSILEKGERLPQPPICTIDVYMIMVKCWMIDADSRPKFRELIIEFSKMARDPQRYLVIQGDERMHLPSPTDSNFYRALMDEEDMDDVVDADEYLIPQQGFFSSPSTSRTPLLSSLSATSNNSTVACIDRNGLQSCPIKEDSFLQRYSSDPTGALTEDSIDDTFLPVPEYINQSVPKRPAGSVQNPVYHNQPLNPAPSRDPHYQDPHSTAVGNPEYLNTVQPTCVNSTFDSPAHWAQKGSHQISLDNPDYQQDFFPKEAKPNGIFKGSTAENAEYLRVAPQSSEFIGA

IC50 [1, 6] [nM] | IC50 [2, 7] [nM] | IC50 [3, 8] [nM] | IC50 [4, 9] [nM] | IC50 [5, 10] [nM] | IC50 ([1]; IC50 del19/C797S, 100 μM ATP) [nM] | IC50 [2, 11] [nM] | IC50 ([3]; IC50 L858R/C797S, 100 μM ATP) [nM] | IC50 ([4]; IC50 WT, 100 μM ATP) [nM] | IC50 [5, 12] [nM] | Structure (SMILES)
762 | 22.4 | 1220 | 4770 | 28.9 | – | – | – | – | – | O=S(=O)(C1CC1)n1cc(-c2nccc(Nc3cc(NC4CCC(F)(F)CC4)c(-c4ccc(N5CCC(F)(F)CC5)nn4)cn3)n2)cn1 [Example 268, N^2-(2-(1-(Cyclopropylsulfonyl)-1H-pyrazol-4-yl)pyrimidin-4-yl)-N^4-(4,4-difluorocyclohexyl)-5-(6-(4,4-difluoropiperidin-1-yl)pyridazin-3-yl)pyridine-2,4-diamine]
0.4 | 0.1 | 0.1 | 2.6 | 0.1 | – | – | – | – | – | CN1CCC(Oc2ccc(-c3cnc(Nc4ccnc(-c5cnn(S(=O)(=O)C6CC6)c5)n4)cc3N[C@H]3CC[C@@](C)(O)CC3)nn2)CC1 [Example 269, (1s,4s)-4-((2-((2-(1-(Cyclopropylsulfonyl)-1H-pyrazol-4-yl)pyrimidin-4-yl)amino)-5-(6-((1-methylpiperidin-4-yl)oxy)pyridazin-3-yl)pyridin-4-yl)amino)-1-methylcyclohexan-1-ol]
3.2 | 0.1 | 1.1 | 36 | 0.3 | – | – | – | – | – | CN1CCC(Oc2ccc(-c3cnc(Nc4ccnc(-c5cnn(S(=O)(=O)C6CC6)c5)n4)cc3N[C@H]3CC[C@@H](F)CC3)nn2)CC1 [Example 270, N^2-(2-(1-(Cyclopropylsulfonyl)-1H-pyrazol-4-yl)pyrimidin-4-yl)-N^4-((1s,4s)-4-fluorocyclohexyl)-5-(6-((1-methylpiperidin-4-yl)oxy)pyridazin-3-yl)pyridine-2,4-diamine]
0.9 | 0.2 | 0.6 | 3.8 | 0.5 | 0.7 | 0.4 | 7.9 | > 10000 | 0.6 | C[C@]1(O)CC[C@@H](Nc2cc(Nc3ccnc(-c4cnn(S(=O)(=O)C5CC5)c4)n3)ncc2-c2cccc(F)n2)CC1 [Example 271, (1s,4s)-4-((6′-((2-(1-(Cyclopropylsulfonyl)-1H-pyrazol-4-yl)pyrimidin-4-yl)amino)-6-fluoro-[2,3′-bipyridin]-4′-yl)amino)-1-methylcyclohexan-1-ol]
0.6 | 0.1 | 1 | 1.4 | 0.3 | 0.7 | 0.3 | 2.5 | 495 | 0.5 | O=S(=O)(C1CC1)n1cc(-c2nccc(Nc3cc(N[C@H]4CC[C@@H](CO)CC4)c(-c4cccc(F)n4)cn3)n2)cn1 [Example 272, ((1s,4s)-4-((6′-((2-(1-(Cyclopropylsulfonyl)-1H-pyrazol-4-yl)pyrimidin-4-yl)amino)-6-fluoro-[2,3′-bipyridin]-4′-yl)amino)cyclohexyl)methanol]
– | – | – | – | – | 1 | 0.3 | 8.6 | 2230 | 0.2 | O=S(=O)(C1CC1)n1cc(-c2nccc(Nc3cc(N[C@H]4CC[C@@H](NCCF)CC4)c(-c4cccc(F)n4)cn3)n2)cn1 [Example 273, N^6′-(2-(1-(Cyclopropylsulfonyl)-1H-pyrazol-4-yl)pyrimidin-4-yl)-6-fluoro-N^4′-((1s,4s)-4-((2-fluoroethyl)amino)cyclohexyl)-[2,3′-bipyridine]-4′,6′-diamine]
0.1 | 0.03 | 0.1 | 0.5 | 0.02 | 0.1 | 0.1 | 0.4 | 108 | 0.1 | CN(C)C[C@H]1CC[C@@H](Nc2cc(Nc3ccnc(-c4cnn(S(=O)(=O)C5CC5)c4)n3)ncc2-c2cccc(F)n2)CC1 [Example 274, N^6′-(2-(1-(Cyclopropylsulfonyl)-1H-pyrazol-4-yl)pyrimidin-4-yl)-N^4′-((1s,4s)-4-((dimethylamino)methyl)cyclohexyl)-6-fluoro-[2,3′-bipyridine]-4′,6′-diamine]
2.5 | 0.7 | 4.1 | 18.5 | 0.9 | 2.6 | 1.2 | 11.4 | > 10000 | 1.1 | O=S(=O)(C1CC1)n1cc(-c2nccc(Nc3cc(N[C@H]4CC[C@@H](NCC(F)F)CC4)c(-c4cccc(F)n4)cn3)n2)cn1 [Example 275, N^6′-(2-(1-(Cyclopropylsulfonyl)-1H-pyrazol-4-yl)pyrimidin-4-yl)-N^4′-((1s,4s)-4-((2,2-difluoroethyl)amino)cyclohexyl)-6-fluoro-[2,3′-bipyridine]-4′,6′-diamine]
0.3 | 0.2 | 0.7 | 2.9 | 0.8 | 0.7 | 0.5 | 2.3 | 2530 | 1.1 | CN(C)CCNc1ccnc(-c2cnc(Nc3ccnc(-c4cnn(S(=O)(=O)C5CC5)c4)n3)cc2N[C@H]2CC[C@@](C)(O)CC2)c1 [Example 276, (1s,4s)-4-((6′-((2-(1-(Cyclopropylsulfonyl)-1H-pyrazol-4-yl)pyrimidin-4-yl)amino)-4-((2-(dimethylamino)ethyl)amino)-[2,3′-bipyridin]-4′-yl)amino)-1-methylcyclohexan-1-ol]
0.9 | 1.6 | 2.2 | 9.8 | 4.4 | 3.9 | – | 11.2 | > 10000 | 4.7 | C[C@]1(O)CC[C@@H](Nc2cc(Nc3ccnc(-c4cnn(S(=O)(=O)C5CC5)c4)n3)ncc2-c2cc(NCCC(F)(F)F)ccn2)CC1 [Example 277, (1s,4s)-4-((6′-((2-(1-(Cyclopropylsulfonyl)-1H-pyrazol-4-yl)pyrimidin-4-yl)amino)-4-((3,3,3-trifluoropropyl)amino)-[2,3′-bipyridin]-4′-yl)amino)-1-methylcyclohexan-1-ol]
1.7 | 0.6 | 0.9 | 11.9 | 2 | 5 | – | 6.6 | > 10000 | 2.9 | C[C@]1(O)CC[C@@H](Nc2cc(Nc3ccnc(-c4cnn(S(=O)(=O)C5CC5)c4)n3)ncc2-c2cc(NCCN3CCOCC3)ccn2)CC1 [Example 279, (1s,4s)-4-((6′-((2-(1-(Cyclopropylsulfonyl)-1H-pyrazol-4-yl)pyrimidin-4-yl)amino)-4 ((2-morpholinoethyl)amino)-[2,3′-bipyridin]-4′-yl)amino)-1-methylcyclohexan-1-ol]
– | – | – | – | – | 2.7 | 0.5 | 20.3 | > 10000 | 1 | C[C@]1(O)CC[C@@H](Nc2cc(Nc3ccnc(-c4cnn(S(=O)(=O)C5CC5)c4)n3)ncc2-c2cc(NC3CC(F)(F)C3)ccn2)CC1 [Example 280, (1s,4s)-4-((6′-((2-(1-(Cyclopropylsulfonyl)-1H-pyrazol-4-yl)pyrimidin-4-yl)amino)-4-((3,3-difluorocyclobutyl)amino)-[2,3′-bipyridin]-4′-yl)amino)-1-methylcyclohexan-1-ol]
– | – | – | – | – | 0.6 | 0.2 | 2.1 | 6340 | 0.2 | C[C@]1(O)CC[C@@H](Nc2cc(Nc3ccnc(-c4cnn(S(=O)(=O)C5CC5)c4)n3)ncc2-c2cc(NCCN3CC(F)C3)ccn2)CC1 [Example 281, (1s,4s)-4-((6′-((2-(1-(Cyclopropylsulfonyl)-1H-pyrazol-4-yl)pyrimidin-4-yl)amino)-4-((2-(3-fluoroazetidin-1-yl)ethyl)amino)-[2,3′-bipyridin]-4′-yl)amino)-1-methylcyclohexan-1-ol]
– | – | – | – | – | 1.4 | 0.4 | 7 | 3970 | 0.2 | C[C@]1(O)CC[C@@H](Nc2cc(Nc3ccnc(-c4cnn(S(=O)(=O)C5CC5)c4)n3)ncc2-c2cc(NCCCO)ccn2)CC1 [Example 282, (1s,4s)-4-((6′-((2-(1-(Cyclopropylsulfonyl)-1H-pyrazol-4-yl)pyrimidin-4-yl)amino)-4-((3-hydroxypropyl)amino)-[2,3′-bipyridin]-4′-yl)amino)-1-methylcyclohexan-1-ol]
– | – | – | – | – | 0.6 | 0.4 | 2.3 | 1970 | 0.1 | CC1(O)CCC(Nc2cc(Nc3ccnc(-c4cnn(S(=O)(=O)C5CC5)c4)n3)ncc2-c2cc(NC3CC(O)C3)ccn2)CC1 (stereo not drawn) [Example 283, (1s,4s)-4-((6′-((2-(1-(Cyclopropylsulfonyl)-1H-pyrazol-4-yl)pyrimidin-4-yl)amino)-4-((3-hydroxycyclobutyl)amino)-[2,3′-bipyridin]-4′-yl)amino)-1-methylcyclohexan-1-ol]

From patent US12258328B2, “6-membered heteroaryl-containing aminopyridine compounds as EGFR inhibitors” (YUHAN CORPORATION, priority 2021, dated 2025)
